Assay results reported in ChEMBL document CHEMBL4118136, “The photodynamic activity of 131-[2'-(2-pyridyl)ethylamine] chlorin e6 photosensitizer in human esophageal cancer” (Bioorg Med Chem Lett, 2018).
The source made the active and inactive calls. No cut-off for these calls is given here.

Key:
ECa-109 cell line [1] = experiment: Induction of apoptosis in human ECA109 cells assessed as viable cells level measured 2 hrs after 2 J/cm2 irradiation by Annexin V and propidium iodide staining based flow cytometry (reference value: 99.99%); type: functional
ECa-109 cell line [2] = experiment: Antitumor activity against human ECA109 cells xenografted in Balb/C nude mouse assessed as increase in cell differentiation at 2 mg/kg, iv followed by irradiation at 100 J/cm2 and measured after 13 days by hematoxylin-eosin staining based light microscopy relative to untreated control; type: functional, organism-based
ECa-109 cell line [3] = experiment: Cytotoxicity in human ECA109 cells assessed as reduction in cell viability incubated for 24 hrs followed by irradiation with 2.5 J/cm2 red light by MTT assay; type: functional, cell-based; details: ECa-109, light or radiation study
ECa-109 cell line [4] = experiment: Antitumor activity against human ECA109 cells xenografted in Balb/C nude mouse assessed as increase in nuclear fission level at 2 mg/kg, iv followed by irradiation at 100 J/cm2 and measured after 13 days by hematoxylin-eosin staining based light microscopy relative to untreated control; type: functional, organism-based
ECa-109 cell line [5] = experiment: Induction of apoptosis in human ECA109 cells assessed as reduction in pro-caspase-3 activity measured 2 hrs after 2 J/cm2 irradiation; type: functional, cell-based
[6] = Induction of singlet oxygen generation assessed as DPBF chemical oxidation in DMF solution incubated for 10 to 30 secs under irradiation by UV-Vis spectrophotometry; type: functional; details: TDE = time-dependent effect
[7] = Drug uptake in human ECA109 cells at 0.5 uM incubated for 2 to 24 hrs by fluorescence spectrometry; type: ADME, cell-based; details: eca-109, 0.5 µM, TDE = time-dependent effect
[8] = Induction of singlet oxygen generation assessed as DPBF chemical oxidation in DMF solution incubated for 10 to 30 secs under irradiation by UV-Vis spectrophotometry relative to mTHPC; type: functional
ECa-109 cell line [9] = experiment: Cytotoxicity in human ECA109 cells assessed as reduction in cell viability incubated for 24 hrs followed by irradiation with 1 J/cm2 red light by MTT assay; type: functional, cell-based; details: ECa-109, light or radiation study
ECa-109 cell line [10] = experiment: Induction of apoptosis in human ECA109 cells assessed as early apoptosis cells level measured 8 hrs after 2 J/cm2 irradiation by Annexin V and propidium iodide staining based flow cytometry; type: functional
ECa-109 cell line [11] = experiment: Induction of apoptosis in human ECA109 cells assessed as late apoptotic cells level in absence of irradiation by Annexin V and propidium iodide staining based flow cytometry (reference value: 0.01%); type: cell-based
ECa-109 cell line [12] = experiment: Cytotoxicity in human ECA109 cells assessed as reduction in cell viability incubated for 24 hrs followed by irradiation with 0.5 to 2.5 J/cm2 red light by MTT assay; type: functional, cell-based
ECa-109 cell line [13] = experiment: Cytotoxicity in human ECA109 cells assessed as reduction in cell viability incubated for 24 hrs followed by irradiation with 2 J/cm2 red light by MTT assay; type: functional, cell-based; details: ECa-109, light or radiation study
ECa-109 cell line [14] = experiment: Induction of apoptosis in human ECA109 cells assessed as necrosis cells level measured 8 hrs after 2 J/cm2 irradiation by Annexin V and propidium iodide staining based flow cytometry; type: functional
ECa-109 cell line [15] = experiment: Induction of apoptosis in human ECA109 cells assessed as early apoptotic cells level in absence of irradiation by Annexin V and propidium iodide staining based flow cytometry; type: cell-based
ECa-109 cell line [16] = experiment: Antitumor activity against human ECA109 cells xenografted in Balb/C nude mouse assessed as inhibition of tumor growth at 2 mg/kg, iv followed by irradiation at 100 J/cm2 and measured after 13 days relative to untreated control; type: functional; details: ECa-109, light or radiation study, 312 h, read-out: TGI
ECa-109 cell line [17] = experiment: Induction of apoptosis in human ECA109 cells assessed as necrosis cells level measured 4 hrs after 2 J/cm2 irradiation by Annexin V and propidium iodide staining based flow cytometry; type: functional
[18] = Induction of singlet oxygen generation assessed as singlet oxygen quantum yield by measuring DPBF chemical oxidation in DMF solution incubated for 10 to 30 secs under irradiation by UV-Vis spectrophotometry; type: functional
ECa-109 cell line [19] = experiment: Antitumor activity against human ECA109 cells xenografted in Balb/C nude mouse assessed as reduction in tumor cell per unit area at 2 mg/kg, iv followed by irradiation at 100 J/cm2 and measured after 13 days by hematoxylin-eosin staining based light microscopy relative to untreated control; type: functional, organism-based
ECa-109 cell line [20] = experiment: Induction of apoptosis in human ECA109 cells assessed as viable cells level measured 4 hrs after 2 J/cm2 irradiation by Annexin V and propidium iodide staining based flow cytometry (reference value: 99.99%); type: functional
[21] = Drug accumulation in mitochondria of human ECA109 cells at 0.9 uM incubated for 4 hrs by mitotracker green dye based confocal microscopy; type: ADME; details: eca-109, 4 h
ECa-109 cell line [22] = experiment: Induction of apoptosis in human ECA109 cells assessed as necrosis cells level measured 2 hrs after 2 J/cm2 irradiation by Annexin V and propidium iodide staining based flow cytometry; type: functional
ECa-109 cell line [23] = experiment: Induction of apoptosis in human ECA109 cells xenografted in Balb/C nude mouse at 2 mg/kg, iv followed by irradiation at 100 J/cm2 and measured after 13 days by TUNEL staining based light microscopy relative to untreated control; type: functional
ECa-109 cell line [24] = experiment: Cytotoxicity in human ECA109 cells assessed as reduction in cell viability incubated for 24 hrs followed by irradiation with 1.5 J/cm2 red light by MTT assay; type: functional, cell-based; details: ECa-109, light or radiation study
ECa-109 cell line [25] = experiment: Antitumor activity against human ECA109 cells xenografted in Balb/C nude mouse assessed as increase in megakaryocytes level at 2 mg/kg, iv followed by irradiation at 100 J/cm2 and measured after 13 days by hematoxylin-eosin staining based light microscopy relative to untreated control; type: functional, organism-based
[26] = Dark toxicity in human ECA109 cells assessed as reduction in cell viability at 0.1 to 0.9 uM incubated for 24 hrs under dark conditions by MTT assay; type: cell-based; details: eca-109, 24 h
[27] = Drug accumulation in endoplasmic reticulum of human ECA109 cells at 0.9 uM incubated for 4 hrs by ER-green[DiOC6(3)] dye based confocal microscopy; type: ADME, subcellular; details: eca-109, 4 h
ECa-109 cell line [28] = experiment: Induction of apoptosis in human ECA109 cells assessed as late apoptosis cells level measured 4 hrs after 2 J/cm2 irradiation by Annexin V and propidium iodide staining based flow cytometry (reference value: 0.01%); type: functional
ECa-109 cell line [29] = experiment: Induction of apoptosis in human ECA109 cells assessed as early apoptosis cells level measured 4 hrs after 2 J/cm2 irradiation by Annexin V and propidium iodide staining based flow cytometry; type: functional
ECa-109 cell line [30] = experiment: Induction of apoptosis in human ECA109 cells assessed as viable cells level measured 8 hrs after 2 J/cm2 irradiation by Annexin V and propidium iodide staining based flow cytometry (reference value: 99.99%); type: functional
ECa-109 cell line [31] = experiment: Induction of apoptosis in human ECA109 cells assessed as late apoptosis cells level measured 8 hrs after 2 J/cm2 irradiation by Annexin V and propidium iodide staining based flow cytometry (reference value: 0.01%); type: functional
ECa-109 cell line [32] = experiment: Induction of apoptosis in human ECA109 cells assessed as early apoptosis cells level measured 2 hrs after 2 J/cm2 irradiation by Annexin V and propidium iodide staining based flow cytometry; type: functional
ECa-109 cell line [33] = experiment: Cytotoxicity in human ECA109 cells assessed as reduction in cell viability incubated for 24 hrs followed by irradiation with 0.5 J/cm2 red light by MTT assay; type: functional, cell-based; details: ECa-109, light or radiation study
[34] = Drug accumulation in lysosome of human ECA109 cells at 0.9 uM incubated for 4 hrs by Lyso tracker blue green dye based confocal microscopy; type: ADME, subcellular; details: eca-109, 4 h
ECa-109 cell line [35] = experiment: Induction of apoptosis in human ECA109 cells assessed as late apoptosis cells level measured 2 hrs after 2 J/cm2 irradiation by Annexin V and propidium iodide staining based flow cytometry (reference value: 0.01%); type: functional
[36] = Induction of apoptosis in human ECA109 cells assessed as viable cells level in absence of irradiation by Annexin V and propidium iodide staining based flow cytometry (reference value: 99.99%); type: cell-based, ECa-109; details: read-out: Activity
ECa-109 cell line [37] = experiment: Induction of apoptosis in human ECA109 cells assessed as necrotic cells level in absence of irradiation by Annexin V and propidium iodide staining based flow cytometry; type: cell-based

For `C=Cc1c(C)c2cc3nc(c(CC(=O)OC)c4[nH]c(cc5nc(cc1[nH]2)C(C)=C5CC)c(C)c4C(=O)NCCc1ccccn1)[C@@H](CCC(=O)OC)[C@@H]3C`, the Activity (ECa-109 cell line [1]) was 15.19%, the Activity (ECa-109 cell line [2]) was “Active” and the IC50 (ECa-109 cell line [3]) was 300 nM. The Activity (ECa-109 cell line [4]) was “Active”, the Activity (ECa-109 cell line [5]) was “Active” and the Activity [6] was “Tde”. For the same compound, the Drug uptake [7] was “Tde”, the fold change (FC) [8] was 0.0193 and the IC50 (ECa-109 cell line [9]) was 640 nM. The Activity (ECa-109 cell line [10]) was 6.01%, the Activity (ECa-109 cell line [11]) was 4.7% and the Activity (ECa-109 cell line [12]) was “Dose-dependent effect”. It also gave an IC50 (ECa-109 cell line [13]) of 380 nM, an Activity (ECa-109 cell line [14]) of 3.29% and an Activity (ECa-109 cell line [15]) of 3.16%. The inhibition in vivo at 2 mg/kg (ECa-109 cell line [16]) was 92%, the Activity (ECa-109 cell line [17]) was 7.87% and the Activity index [18] was 0.98. The Activity (ECa-109 cell line [19]) was “Active”, the Activity (ECa-109 cell line [20]) was 13.1% and the Drug uptake [21] was “Active”. For the same compound, the Activity (ECa-109 cell line [22]) was 9.33%, the Activity (ECa-109 cell line [23]) was 40% and the IC50 (ECa-109 cell line [24]) was 430 nM. The Activity (ECa-109 cell line [25]) was “Active”, the Activity [26] was “Non-Toxic” and the Drug uptake [27] was “Active”. For the same compound, the Activity (ECa-109 cell line [28]) was 70.93%, the Activity (ECa-109 cell line [29]) was 8.1% and the Activity (ECa-109 cell line [30]) was 4.92%. The Activity (ECa-109 cell line [31]) was 85.78%, the Activity (ECa-109 cell line [32]) was 7.15% and the IC50 (ECa-109 cell line [33]) was 1330 nM. For the same compound, the Drug uptake [34] was “Active”, the Activity (ECa-109 cell line [35]) was 68.34% and the viability [36] was 89.8%. For the same compound, the Activity (ECa-109 cell line [37]) was 2.3%.
Compound `Oc1cccc(-c2c3nc(c(-c4cccc(O)c4)c4ccc([nH]4)c(-c4cccc(O)c4)c4nc(c(-c5cccc(O)c5)c5ccc2[nH]5)CC4)C=C3)c1` [TEMOPORFIN] has an inhibition in vivo at 2 mg/kg (ECa-109 cell line [16]) of 79%.
